# According to US20210255193A1, “LYSINE REACTIVE PROBES AND USES THEREOF” (The Scripps Research Institute, priority 2017, published 2021):
# Columns and labels:
# Assay in all cases: competitive isoTOP-ABPP
# Type in all cases: binding
# [1] = molecular target: T1, IFIT3 Interferon-induced protein with tetratricopeptide (Homo sapiens, UniProt O14879); conditions: for R value (DMSO/fragment) for probe 1 labeling: O14879_K148; for R value (DMSO/fragment) for probe 1 labeling / isoTOP-ABPP reactivity ratio at lysine O14879_K148 / isoTOP-ABPP ratio (R) at liganded lysine O14879_K148: 50 uM, in vitro; for R value (DMSO/fragment) for probe 1 labeling / isoTOP-ABPP reactivity ratio at lysine O14879_K148: 231 sol; for isoTOP-ABPP ratio (R) at liganded lysine O14879_K148: sol, 231; for isoTOP-ABPP ratio, lysine O14879_K148: 50 uM_231_sol_in vitro
# T1 construct: isoTOP-ABPP experiments performed in cell lysates (in vitro); endogenous in cells; host or cells: MDA-MB-231 soluble lysate
# T1 sequence (O14879 1-490): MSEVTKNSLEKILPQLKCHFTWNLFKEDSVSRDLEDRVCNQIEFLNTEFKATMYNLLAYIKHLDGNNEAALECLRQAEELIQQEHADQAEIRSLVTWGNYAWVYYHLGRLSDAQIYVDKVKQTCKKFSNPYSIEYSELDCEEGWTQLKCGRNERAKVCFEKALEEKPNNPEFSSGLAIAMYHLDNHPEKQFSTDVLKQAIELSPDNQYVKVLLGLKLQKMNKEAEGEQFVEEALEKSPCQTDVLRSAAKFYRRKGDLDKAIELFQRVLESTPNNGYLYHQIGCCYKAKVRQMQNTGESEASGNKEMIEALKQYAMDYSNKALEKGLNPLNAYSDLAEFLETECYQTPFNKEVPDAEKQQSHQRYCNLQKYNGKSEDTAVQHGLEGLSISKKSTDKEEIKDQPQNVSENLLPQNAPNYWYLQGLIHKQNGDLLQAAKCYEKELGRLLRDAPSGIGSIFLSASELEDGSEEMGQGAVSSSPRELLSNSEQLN
# Summary of the method: (§1)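 Here, isoTOP-ABPP measures loss of STP-alkyne labeling at individual lysines after fragment exposure in lysate. Activated esters are dosed at 50 μM, guanidinylating agents at 100 μM; the probe follows at 0.1 mM for 1 h. R ≥4 marks a liganded lysine.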
# DTYMK Thymidylate kinase = molecular target: T2, DTYMK Thymidylate kinase (Homo sapiens, UniProt P23919); conditions: for R value (DMSO/fragment) for probe 1 labeling: P23919_K118; for R value (DMSO/fragment) for probe 1 labeling / isoTOP-ABPP reactivity ratio at lysine P23919_K118 / isoTOP-ABPP ratio (R) at liganded lysine P23919_K118: 50 uM, in vitro; for R value (DMSO/fragment) for probe 1 labeling / isoTOP-ABPP reactivity ratio at lysine P23919_K118: 231 sol; for isoTOP-ABPP ratio (R) at liganded lysine P23919_K118: sol, 231
# T2 construct: isoTOP-ABPP experiments performed in cell lysates (in vitro); endogenous in cells; host or cells: soluble proteome of human cancer cell lines (MDA-MB-231; Ramos and Jurkat also prepared)
# T2 sequence (P23919 1-212): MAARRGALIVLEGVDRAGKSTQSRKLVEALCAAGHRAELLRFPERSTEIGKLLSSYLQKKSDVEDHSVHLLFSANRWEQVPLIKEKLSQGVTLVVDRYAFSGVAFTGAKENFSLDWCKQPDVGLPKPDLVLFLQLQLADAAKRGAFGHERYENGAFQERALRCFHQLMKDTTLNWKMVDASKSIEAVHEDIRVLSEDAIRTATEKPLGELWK
# Summary of the method: as §1
# [2] = molecular target: T3, ETFA Electron transfer flavoprotein subunit alpha, mitochondrial (Homo sapiens, UniProt P13804); conditions: for R value (DMSO/fragment) for probe 1 labeling: P13804_K139; for R value (DMSO/fragment) for probe 1 labeling / isoTOP-ABPP reactivity ratio at lysine P13804_K139 / isoTOP-ABPP ratio (R) at liganded lysine P13804_K139: 50 uM, in vitro; for R value (DMSO/fragment) for probe 1 labeling / isoTOP-ABPP reactivity ratio at lysine P13804_K139: 231 sol; for isoTOP-ABPP ratio (R) at liganded lysine P13804_K139: sol, 231; for isoTOP-ABPP ratio, lysine P13804_K139: 50 uM_231_sol_in vitro
# T3 construct: isoTOP-ABPP experiments performed in cell lysates (in vitro); endogenous in cells; host or cells: soluble proteome of human cancer cell lines (MDA-MB-231; Ramos and Jurkat also prepared)
# T3 sequence (P13804 20-333): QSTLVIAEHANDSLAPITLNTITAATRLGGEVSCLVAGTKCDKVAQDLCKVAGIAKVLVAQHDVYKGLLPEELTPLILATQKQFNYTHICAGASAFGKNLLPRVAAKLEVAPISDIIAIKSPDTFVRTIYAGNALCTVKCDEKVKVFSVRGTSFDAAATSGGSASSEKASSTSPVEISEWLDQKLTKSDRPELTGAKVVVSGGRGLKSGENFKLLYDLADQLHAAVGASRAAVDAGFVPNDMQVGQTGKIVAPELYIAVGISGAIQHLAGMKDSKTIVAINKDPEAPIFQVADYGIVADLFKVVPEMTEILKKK
# T3 sequence (P38117 2-255 partner limits assumed): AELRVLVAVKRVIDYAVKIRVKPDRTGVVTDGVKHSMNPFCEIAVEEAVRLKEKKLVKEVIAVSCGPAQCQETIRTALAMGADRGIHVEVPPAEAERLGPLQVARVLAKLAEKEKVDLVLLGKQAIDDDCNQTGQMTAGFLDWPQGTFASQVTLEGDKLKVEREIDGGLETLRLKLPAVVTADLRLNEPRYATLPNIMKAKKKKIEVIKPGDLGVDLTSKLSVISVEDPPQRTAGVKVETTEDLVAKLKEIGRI
# Summary of the method: as §1
# [3] = molecular target: T4, IMPDH1 Inosine-5-monophosphate dehydrogenase 1 (Homo sapiens, UniProt P20839); conditions: for isoTOP-ABPP ratio (R) at liganded lysine P20839_K208: sol, 231
# T4 construct: isoTOP-ABPP experiments performed in cell lysates (in vitro); endogenous in cells; host or cells: soluble proteome of human cancer cell lines (MDA-MB-231; Ramos and Jurkat also prepared)
# T4 sequence (P20839 whole entry): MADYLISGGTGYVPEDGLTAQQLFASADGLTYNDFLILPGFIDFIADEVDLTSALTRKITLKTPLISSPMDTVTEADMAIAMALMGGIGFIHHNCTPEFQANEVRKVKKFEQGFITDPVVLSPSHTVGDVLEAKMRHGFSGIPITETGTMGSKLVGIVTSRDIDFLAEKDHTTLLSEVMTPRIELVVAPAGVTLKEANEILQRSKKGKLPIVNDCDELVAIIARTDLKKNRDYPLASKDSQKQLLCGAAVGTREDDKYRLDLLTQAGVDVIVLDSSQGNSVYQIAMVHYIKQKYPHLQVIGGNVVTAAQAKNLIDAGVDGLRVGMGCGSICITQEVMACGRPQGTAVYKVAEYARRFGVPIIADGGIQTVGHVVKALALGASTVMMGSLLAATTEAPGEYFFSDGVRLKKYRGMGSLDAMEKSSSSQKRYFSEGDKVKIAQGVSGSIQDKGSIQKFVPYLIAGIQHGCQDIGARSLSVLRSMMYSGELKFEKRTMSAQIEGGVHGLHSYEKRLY
# Summary of the method: as §1
compound,measurement,setting,value
"O=C(CCc1cn(-c2ccccc2)nc1-c1ccccc1)Oc1c(F)c(F)c(F)c(F)c1F [fragment 19, Pentafluorophenyl 3-(1,3-diphenyl-1H-pyrazol-4-yl)propanoate]",R value (DMSO/fragment) for probe 1 labeling,[1],0.9
"O=C(Oc1c(F)c(F)c(F)c(F)c1F)C(c1ccccc1)c1ccccc1 [fragment 20, Pentafluorophenyl 2,2-diphenylacetate]",R value (DMSO/fragment) for probe 1 labeling,DTYMK Thymidylate kinase,0.9
same,R value (DMSO/fragment) for probe 1 labeling,[2],0.9
same,R value (DMSO/fragment) for probe 1 labeling,[1],0.7
"O=C(Oc1c(F)c(F)c(F)c(F)c1F)c1cc(C(F)(F)F)cc(C(F)(F)F)c1 [fragment 21, Pentafluorophenyl 3,5-bis(trifluoromethyl)benzoate]",R value (DMSO/fragment) for probe 1 labeling,DTYMK Thymidylate kinase,0.8
same,R value (DMSO/fragment) for probe 1 labeling,[1],1.4
"Cn1cc(CC(=O)Oc2c(F)c(F)c(F)c(F)c2F)c2ccccc21 [fragment 22, Pentafluorophenyl 2-(1-methyl-1H-indol-3-yl)acetate]",R value (DMSO/fragment) for probe 1 labeling,[2],0.9
"COc1cc(CCC(=O)Oc2c(F)c(F)c(F)c(F)c2F)cc(OC)c1OC [fragment 23, Pentafluorophenyl 3-(3,4,5-trimethoxyphenyl)propanoate]",R value (DMSO/fragment) for probe 1 labeling,[2],1.4
"O=C(Oc1c(F)c(F)c(F)c(F)c1F)C1CCN(C(=O)OCc2ccccc2)CC1 [fragment 24, 1-Benzyl 4-(pentafluorophenyl) piperidine-1,4-dicarboxylate]",isoTOP-ABPP reactivity ratio at lysine P23919_K118,DTYMK Thymidylate kinase,1.1
same,isoTOP-ABPP reactivity ratio at lysine P13804_K139,[2],1.1
same,isoTOP-ABPP reactivity ratio at lysine O14879_K148,[1],1.3
"O=C(Oc1c(F)c(F)c(F)c(F)c1F)c1ccc2ccccc2n1 [fragment 25, Pentafluorophenyl quinoline-2-carboxylate]",isoTOP-ABPP reactivity ratio at lysine P23919_K118,DTYMK Thymidylate kinase,1.1
same,isoTOP-ABPP reactivity ratio at lysine O14879_K148,[1],1.9
"O=C(CCc1coc2cc(F)ccc2c1=O)Oc1c(F)c(F)c(F)c(F)c1F [fragment 26, Pentafluorophenyl 3-(7-fluoro-4-oxo-4H-chromen-3-yl)propanoate]",isoTOP-ABPP reactivity ratio at lysine O14879_K148,[1],1.4
"O=C(CN1C(=O)c2ccccc2C1=O)Oc1c(F)c(F)c(F)c(F)c1F [fragment 27, Pentafluorophenyl 2-(1,3-dioxoisoindolin-2-yl)acetate]",isoTOP-ABPP reactivity ratio at lysine O14879_K148,[1],0.9
"CCn1cc(C(=O)Oc2c(F)c(F)c(F)c(F)c2F)c(=O)c2ccc(C)nc21 [fragment 28, Pentafluorophenyl 1-ethyl-7-methyl-4-oxo-1,4-dihydro-1,8-naphthyridine-3-carboxylate]",isoTOP-ABPP reactivity ratio at lysine P23919_K118,DTYMK Thymidylate kinase,0.9
same,isoTOP-ABPP reactivity ratio at lysine O14879_K148,[1],1.0
"O=C(Oc1ccc([N+](=O)[O-])cc1[N+](=O)[O-])C(c1ccccc1)c1ccccc1 [fragment 30, 2,4-Dinitrophenyl 2,2-diphenylacetate]",isoTOP-ABPP reactivity ratio at lysine P13804_K139,[2],20.0
same,isoTOP-ABPP reactivity ratio at lysine P20839_K208,"[3]; 50 uM, 231 sol, in vitro",1.6
"O=C(Oc1ccc([N+](=O)[O-])cc1[N+](=O)[O-])c1cc(C(F)(F)F)cc(C(F)(F)F)c1 [fragment 31, 2,4-Dinitrophenyl 3,5-bis(trifluoromethyl)benzoate]",isoTOP-ABPP reactivity ratio at lysine P13804_K139,[2],0.8
"Cn1cc(CC(=O)Oc2ccc([N+](=O)[O-])cc2[N+](=O)[O-])c2ccccc21 [fragment 32, 2,4-Dinitrophenyl 2-(1-methyl-1H-indol-3-yl)acetate]",isoTOP-ABPP reactivity ratio at lysine P13804_K139,[2],20.0
"O=C(Oc1ccc([N+](=O)[O-])cc1[N+](=O)[O-])c1ccc2ccccc2n1 [fragment 35, 2,4-Dinitrophenyl quinoline-2-carboxylate]",isoTOP-ABPP ratio (R) at liganded lysine P23919_K118,DTYMK Thymidylate kinase,0.9
same,isoTOP-ABPP ratio (R) at liganded lysine P13804_K139,[2],0.9
"O=C(CCc1coc2cc(F)ccc2c1=O)Oc1ccc([N+](=O)[O-])cc1[N+](=O)[O-] [fragment 36, 2,4-Dinitrophenyl 3-(7-fluoro-4-oxo-4H-chromen-3-yl)propanoate]",isoTOP-ABPP ratio (R) at liganded lysine P13804_K139,[2],0.7
same,isoTOP-ABPP ratio (R) at liganded lysine P20839_K208,"[3]; 50 uM, in vitro",1.6
same,isoTOP-ABPP ratio (R) at liganded lysine O14879_K148,[1],3.4
"O=C(CC12CC3CC(CC(C3)C1)C2)Oc1ccc([N+](=O)[O-])cc1[N+](=O)[O-] [fragment 38, 2,4-Dinitrophenyl 2-(adamantan-1-yl)acetate]",isoTOP-ABPP ratio (R) at liganded lysine P20839_K208,"[3]; 50 uM, in vitro",1.2
"O=C(Oc1ccc([N+](=O)[O-])cc1[N+](=O)[O-])c1ccc(Oc2ccccc2)cc1 [fragment 39, 2,4-Dinitrophenyl 4-phenoxybenzoate]",isoTOP-ABPP ratio (R) at liganded lysine P23919_K118,DTYMK Thymidylate kinase,0.8
same,isoTOP-ABPP ratio (R) at liganded lysine P13804_K139,[2],0.6
same,isoTOP-ABPP ratio (R) at liganded lysine O14879_K148,[1],1.4
"O=C(Oc1ccc([N+](=O)[O-])cc1[N+](=O)[O-])c1ccccc1Nc1cccc(C(F)(F)F)c1 [fragment 40, 2,4-Dinitrophenyl 2-((3-(trifluoromethyl)phenyl)amino)benzoate]",isoTOP-ABPP ratio (R) at liganded lysine P13804_K139,[2],0.9
"O=C(Oc1ccc([N+](=O)[O-])cc1[N+](=O)[O-])C(c1ccccc1)(c1ccccc1)c1ccccc1 [fragment 42, 2,4-Dinitrophenyl 2,2,2-triphenylacetate]",isoTOP-ABPP ratio (R) at liganded lysine P20839_K208,"[3]; 50 uM, in vitro",1.2
same,isoTOP-ABPP ratio (R) at liganded lysine O14879_K148,[1],0.8
"CC(=O)Oc1ccc([N+](=O)[O-])cc1[N+](=O)[O-] [fragment 43, 2,4-Dinitrophenyl acetate]",isoTOP-ABPP ratio (R) at liganded lysine P20839_K208,"[3]; 50 uM, in vitro",1.3
"N#Cc1ccc(C(=O)Oc2ccc([N+](=O)[O-])cc2[N+](=O)[O-])cc1 [fragment 44, 2,4-Dinitrophenyl 4-cyanobenzoate]","isoTOP-ABPP ratio, lysine P13804_K139",[2],0.9
same,"isoTOP-ABPP ratio, lysine O14879_K148",[1],2.2
"O=C(CCc1ccc2c(c1)OCO2)Oc1ccc([N+](=O)[O-])cc1[N+](=O)[O-] [fragment 45, 2,4-Dinitrophenyl 3-(benzo[d][1,3]dioxol-5-yl)propanoate]","isoTOP-ABPP ratio, lysine P13804_K139",[2],1.0
same,"isoTOP-ABPP ratio, lysine P20839_K208",[3]; 50 uM_231_sol_in vitro,1.5
same,"isoTOP-ABPP ratio, lysine O14879_K148",[1],2.7
"O=C(ON1C(=O)CCC1=O)c1cc(C(F)(F)F)cc(C(F)(F)F)c1 [fragment 46, 3,5-Bis(trifluoromethyl)benzoic acid NHS ester]","isoTOP-ABPP ratio, lysine P13804_K139",[2],0.9
same,"isoTOP-ABPP ratio, lysine O14879_K148",[1],2.2
"O=C(Oc1c(F)c(F)cc(F)c1F)c1cc(C(F)(F)F)cc(C(F)(F)F)c1 [fragment 48, 2,3,5,6-Tetrafluorophenyl 3,5-bis(trifluoromethyl)benzoate]","isoTOP-ABPP ratio, lysine P23919_K118",DTYMK Thymidylate kinase; 50 uM_231_sol_in vitro,0.6
same,"isoTOP-ABPP ratio, lysine P13804_K139",[2],0.9
same,"isoTOP-ABPP ratio, lysine O14879_K148",[1],0.7
"COC(=O)NC(=NC(=O)OCC1c2ccccc2-c2ccccc21)n1cccn1 [fragment 49, N-Methoxycarbonyl-N′-9-fluorenylmethoxycarbonyl-pyrazole-1-carboxamidine]","isoTOP-ABPP ratio, lysine P20839_K208",[3]; 100 uM_231_sol_in vitro,4.4
"NC(=O)c1cc(C(F)(F)F)cc(C(F)(F)F)c1 [fragment 51, reference compound]","isoTOP-ABPP ratio, lysine P13804_K139",[2],1.0
